Results as given in a melting point compilation (Tetko et al.; mined from patent text by program, amines drawn as free bases though some values may be those of a salt).

Row | SMILES | melting point
1 | NNC(=O)c1ccc2c(c1)C(=C(Cl)Cl)OC(C(Cl)(Cl)Cl)O2 (centres undefined) | 182 to 183 °C
2 | CS(=O)(=O)Cc1cc(C(=O)C=NCCCCCCN=CC(=O)c2ccc(OCc3ccccc3)c(CS(C)(=O)=O)c2)ccc1OCc1ccccc1 | 162 to 163 °C
3 | CC(C)C(NC(=O)OC(C)(C)C)C(=O)NC(C(=O)OCC1OC(n2cc(C=CBr)c(=O)[nH]c2=O)CC1Cl)C(C)C (centres undefined) | 102 to 103 °C
4 | O=C(c1ccccc1)n1c2cc(O)c(O)cc2c2cc(O)c(O)cc21 | 287 to 292 °C
5 | COc1cc(Nc2c(C#N)cnc3ccc(-c4csc(C=O)c4)cc23)c(Cl)cc1Cl | 233 to 237 °C
6 | CC(C)N(CCC(C#N)c1ccc(-c2ccccc2)cc1)C(C)C (centres undefined) | 54 to 56 °C
7 | N#Cc1c(C(F)(F)F)ccc(Cl)c1F | 43 to 44 °C
8 | CC(C)c1cccc(C(C)C)c1NC(=O)CSCC(=O)O | 168 to 169 °C
9 | Cc1csc2ccc3[nH]c4c(c3c12)CN(CCCC(c1ccc(F)cc1)c1ccc(F)cc1)CC4 | 158 °C
10 | CC(=O)c1cnn(C)c1S(N)(=O)=O | 153 to 162 °C
11 | CC(C)(C)OC(=O)Nc1cc(OCc2ccccc2)c(OCc2ccccc2)cn1 | 163 °C
12 | NC(=O)c1cnn(-c2ncc(C(F)(F)F)cc2Cl)c1N | 196 °C
13 | O=C(NC(Nc1c(Nc2cccnc2)c(=O)c1=O)C(F)(F)C(F)(F)F)c1cccc(Cl)c1 (centres undefined) | 212 to 213 °C
14 | Cc1cc(Br)c(N)cc1Cl | 90 °C
15 | O=C1Nc2ccccc2N(C(=O)CN2CCCCC2CN2CCCCC2)c2ccccc21 (centres undefined) | 220 to 221 °C
16 | CN1Cc2cc(F)ccc2-n2c(c(C#CC(C)(O)C3CC3)[nH]c2=O)C1 (centres undefined) | 191 to 192 °C
17 | N#Cc1cc(C(=O)NNC(=O)c2occ(-c3cccc(OCc4ccccc4)c3)c2-c2cccc(OCc3ccccc3)c2)ccc1O | 171 to 174 °C
18 | O=S(=O)(c1ccc(Cl)cc1)C(c1cc(F)ccc1F)c1cc(NCCO)ncc1Cl (centres undefined) | 168 to 169 °C
19 | O=C(Nc1ccc(N2CCN(C(=O)Nc3ccc(OCCO)cc3C(F)(F)F)CC2)cc1)Nc1ccccc1F | 219 to 220 °C

Continued, values first:

Row | melting point | SMILES
20 | 260 °C | C#CCN(c1ccc(C(=O)NCc2cccc(C#N)c2)cc1)C1CCc2cc3nc(C)[nH]c(=O)c3cc21 (racemic)
21 | 172 to 173 °C | CS(=O)(=O)n1ccc2c1CC(c1ccccc1)CC2=O (centres undefined)
22 | > 250 °C | Cn1c(CN2C(=O)C3(COc4cc5c(cc43)OCO5)c3ccccc32)nc2ccccc21 (centres undefined)
23 | 222 to 226 °C | Cc1cccc2c1COC(=O)N2
24 | 111 to 113 °C | CCOC(=O)C(=O)Nc1cccc([N+](=O)[O-])c1C#N
25 | 126 to 128 °C | CC(C)COC(=O)Nc1ccc(C2CCSCC2)cc1
26 | 99.7 to 101 °C | O=Cc1c(-c2ccc(Cl)cc2)sc2ccccc12
27 | 168 °C | CC(=O)NCCc1c[nH]c2ncccc12
28 | 209 to 210 °C | Cc1cccc2cc(N3CCN(CCO)CC3)[nH]c(=O)c12
29 | 278 to 280 °C | NC(=O)c1ccc(COc2cccc3c2CN(C2CCC(=O)NC2=O)C3=O)cc1 (centres undefined)
30 | 111 to 113 °C | COc1ccc(CN2C(=O)CNS2(=O)=O)cc1
31 | 142 to 143 °C | CC(=O)NCCCC(=O)N1CCCC2=C1CCc1cc(Cl)ccc12
32 | 126 °C | Cc1ccnc(-c2ccc(Br)cc2)c1
33 | 87 to 95 °C | COC[C@H]1CN(C2=Nc3ccccc3Nc3sc(C)cc32)CCN1
34 | 135 to 137 °C | COc1ccc2cnc(Cl)nc2c1C(C)C
35 | 182 to 183 °C | COc1ccc(-c2c(C(=O)c3ccccc3)c(CBr)nc3cc(OC)c(OC)cc23)cc1OC
36 | 192 °C | O=C(O)c1cc(S(=O)Cc2ccccc2)c(Cl)cc1Cl (centres undefined)
37 | 177 to 181 °C | CCOc1cc2ncc(C#N)c(Nc3ccc(F)cc3)c2cc1OCC
38 | 200 to 203 °C | CCOC(=O)COc1ccc(NC(=O)NC(=O)c2ccc(C#N)cc2)cc1
39 | 80 to 83 °C | CCCc1c(OCc2ccc(C(=O)O)c(Br)c2)ccc(C(C)=O)c1O
